Source: article PMC3417054 (Cell host & microbe, 2010)
“Also recorded” adds a separate entry of the source.

Columns and labels:
[1] = molecular target: T1, human neutrophils (Homo sapiens, UniProt P25090); assay: Ca2+ flux in human neutrophils; assay type: cell-based; settings: 37°C; for pEC50, calcium ion flux: human neutrophils, Fluo-3-AM, flow cytometry, means +/- SD of at least three independent experiments, nonlinear regression, 11-18 points
T1 sequence (P25090 1-351): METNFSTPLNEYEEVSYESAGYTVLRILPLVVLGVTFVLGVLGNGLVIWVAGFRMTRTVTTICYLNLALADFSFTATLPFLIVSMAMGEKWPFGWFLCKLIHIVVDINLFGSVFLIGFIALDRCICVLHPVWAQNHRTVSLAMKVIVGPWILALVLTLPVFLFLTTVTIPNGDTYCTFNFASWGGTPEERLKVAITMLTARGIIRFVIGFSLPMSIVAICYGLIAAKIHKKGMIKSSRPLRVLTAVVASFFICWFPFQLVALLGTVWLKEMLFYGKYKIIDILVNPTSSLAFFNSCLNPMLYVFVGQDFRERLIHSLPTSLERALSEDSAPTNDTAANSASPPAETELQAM

[2] = molecular target: T1, human neutrophils; assay: Neutrophil chemotaxis; assay type: cell-based; settings: 3-µm trans-well filter, fluorescence-labeled neutrophils
[3] = tested on: mouse FPR paralog (Fpr-rs2); settings: ref Karlsson et al., 2006; Onnheim et al., 2008; cited from earlier work
[4] = tested on: human FPR2/ALX; settings: ref Karlsson et al., 2006; Onnheim et al., 2008; cited from earlier work
[5] = tested on: peritoneal granulocyte infiltration, S. aureus USA300; assay: Mouse peritonitis model, S. aureus USA300; assay type: in vivo; settings: WRW4 prior to infection, two-hours infection period
[6] = tested on: mouse neutrophils; assay: Ca2+ flux in mouse neutrophils; assay type: cell-based; settings: calcium flux
[7] = molecular target: T2, FPR2/ALX-transfected HL60 (Homo sapiens, UniProt P25090); assay: Ca2+ flux in FPR2/ALX-transfected HL60 cells; assay type: cell-based
T2 sequence (P25090 1-351): T1 sequence (P25090 1-351)

[8] = tested on: mice, cows, pigs, dogs, and cats; settings: ref Styrt, 1989; cited from earlier work
[9] = tested on: FPR1-transfected HL60; assay: Ca2+ flux in FPR1-transfected HL60 cells; assay type: cell-based, human; settings: 62.5-500 nM formylated PSMs, 2 µM non-formylated PSMs; fMLF 20 nM

With pertussis toxin the “effect of pertussis toxin on PSM-induced calcium flux” value ([1]; PTX 1 µg/ml, three hours, 5% CO2) was “sensitive; also recorded: blocked”.

For “MDFTGVITSIIDLIKTCIQAFG [PSM-mec, formylated]”, the “chemotaxis of human neutrophils” value [2] was “induce chemotaxis”.

In the case of WRWWWW-NH2 [WRW4], the “inhibition of mouse FPR paralog Fpr-rs2” value [3] is listed as “inhibitor”, the “inhibition of human FPR2/ALX” value [4] is listed as “an inhibitor of human FPR2/ALX” and the “effect on numbers of live bacteria” value [5] is listed as “no impact”. The “effect of WRW4 on mouse neutrophil stimulation by fMLF” value ([6]; fMLF 500 nM) was “not affected” and the “effect of WRW4 on mouse neutrophil stimulation by MMK1 and PSMs” value ([6]; formylated PSMα3 250 nM, PSMα2 12.5 nM, δ-toxin 50 nM, MMK1 500 nM) was “potent antagonistic effect; also recorded: blocks”.

In the case of `CSCC[C@H](N)C(=O)N[C@@H](CCC(=O)O)C(=O)N[C@@H](Cc1ccccc1)C(=O)N[C@H](C(=O)N[C@@H](C)C(=O)N[C@@H](CCCCN)C(=O)N[C@@H](CC(C)C)C(=O)N[C@@H](Cc1ccccc1)C(=O)N[C@@H](CCCCN)C(=O)N[C@@H](Cc1ccccc1)C(=O)N[C@@H](Cc1ccccc1)C(=O)N[C@@H](CCCCN)C(=O)N[C@@H](CC(=O)O)C(=O)N[C@@H](CC(C)C)C(=O)N[C@@H](CC(C)C)C(=O)NCC(=O)N[C@@H](CCCCN)C(=O)N[C@@H](Cc1ccccc1)C(=O)N[C@@H](CC(C)C)C(=O)NCC(=O)N[C@@H](CC(N)=O)C(=O)N[C@@H](CC(N)=O)C(=O)O)C(C)C` [PSMα3, non-formylated], the EC50 [7] is reported as 257 nM and the “pEC50, calcium ion flux” value [1] is reported as 5.19 ± 0.24.

In the case of LESIFRSLLFRVM-NH2 [MMK1], the “calcium flux activation of FPR2/ALX-transfected HL60” value ([7]; 62.5 nM (formylated PSMα3), 125 nM (formylated PSMα2), 250 nM (formylated δ-toxin, PSM-mec), 500 nM (formylated PSMsα1, α4, β1, β2), 2 µM (non-formylated PSMs), MMK1 10 nM) is reported as “responded”.

In the case of fMLF, the “response to fMLF” value [8] is given as “hardly respond” and the “calcium flux activation of FPR1-transfected HL60” value [9] is given as “responded”.

With `CC[C@H](C)[C@H](NC(=O)[C@H](Cc1c[nH]c2ccccc12)NC(=O)[C@H](CCCCN)NC(=O)[C@@H](NC(=O)[C@H](CC(C)C)NC(=O)[C@H](CC(=O)O)NC(=O)[C@H](CO)NC(=O)[C@@H](NC(=O)[C@@H](NC(=O)[C@H](CO)NC(=O)[C@@H](NC(=O)[C@@H](NC(=O)[C@H](CC(=O)O)NC(=O)[C@H](CCC(N)=O)NC(=O)[C@H](C)NC(=O)[C@@H](N)CCSC)[C@@H](C)CC)[C@@H](C)CC)[C@@H](C)O)[C@@H](C)CC)C(C)C)C(=O)N[C@H](C(=O)N[C@@H](CC(=O)O)C(=O)N[C@H](C(=O)N[C@H](C(=O)N[C@@H](CC(N)=O)C(=O)N[C@@H](CCCCN)C(=O)N[C@@H](Cc1ccccc1)C(=O)N[C@H](C(=O)N[C@@H](CCCCN)C(=O)N[C@@H](CCCCN)C(=O)O)[C@@H](C)O)C(C)C)[C@@H](C)O)[C@@H](C)CC` [δ-Toxin, non-formylated] the EC50 [7] was 479 nM and the “pEC50, calcium ion flux” value [1] was 5.20 ± 0.14.
